The target of assay [1] is T1, Glucagon-like peptide 1 receptor (Homo sapiens, UniProt P43220). The following applies: CHO, at 10 µM.
Description: Antagonist activity at human GLP-1R expressed in CHO cells assessed as inhibition of GLP-1-stimulated cAMP production at 10 uM preincubated for 30 mins followed by GLP-1 induction measured after 45 mins by LANCE assay relative to control
Assay [2] concerns the target T2, Glucagon receptor (Homo sapiens, UniProt P47871). The assay is described as follows: Antagonist activity at human GCGR expressed in CHO cells assessed as inhibition of glucagon-stimulated cAMP production preincubated for 30 mins followed by glucagon induction measured after 45 mins by LANCE assay. The class given is functional, cell-based. For orientation: cAMP levels reflect the balance of adenylyl cyclase and phosphodiesterase activity.

The target in assay [3] is T2, Glucagon receptor. The experiment in a line: biochemical. The format is cell-based, CHO.
Description: Displacement of [125I]-glucagon from recombinant human GCGR expressed in CHO cells after 60 mins by scintillation counting analysis
Assay [4] deals with Glucagon receptor (Mus musculus, UniProt Q61606). The format is cell membranes, Liver, Membrane.
Description: Displacement of [125I]-glucagon from GCGR in mouse liver membranes after 60 mins by scintillation counting analysis
Assay [5] concerns Homo sapiens. The experiment in a line: Antidiabetic activity in human assessed as inhibition of exogenous glucagon-stimulated glucose excursion at 1000 mg, po qd relative to control. The format is functional.
In assay [6] the test system is Homo sapiens. The experiment in a line: Antidiabetic activity in human assessed as inhibition of exogenous glucagon-stimulated glucose excursion at 200 mg, po qd relative to control. The class given is functional.
In assay [7] the target is T1, Glucagon-like peptide 1 receptor. The assay is described as follows: Antagonist activity at human GLP-1R expressed in CHO cells assessed as inhibition of GLP-1-stimulated cAMP production preincubated for 30 mins followed by GLP-1 induction measured after 45 mins by LANCE assay. The format is functional, cell-based.

Where only a bound is given, the exact number is not on record here.

As usually defined, the inhibition is the relative decrease from the control value, in per cent. Low readings indicate little suppression, high ones strong suppression. One may read the IC50 as the concentration that gives 50% inhibition.

T1 sequence (P43220 whole entry): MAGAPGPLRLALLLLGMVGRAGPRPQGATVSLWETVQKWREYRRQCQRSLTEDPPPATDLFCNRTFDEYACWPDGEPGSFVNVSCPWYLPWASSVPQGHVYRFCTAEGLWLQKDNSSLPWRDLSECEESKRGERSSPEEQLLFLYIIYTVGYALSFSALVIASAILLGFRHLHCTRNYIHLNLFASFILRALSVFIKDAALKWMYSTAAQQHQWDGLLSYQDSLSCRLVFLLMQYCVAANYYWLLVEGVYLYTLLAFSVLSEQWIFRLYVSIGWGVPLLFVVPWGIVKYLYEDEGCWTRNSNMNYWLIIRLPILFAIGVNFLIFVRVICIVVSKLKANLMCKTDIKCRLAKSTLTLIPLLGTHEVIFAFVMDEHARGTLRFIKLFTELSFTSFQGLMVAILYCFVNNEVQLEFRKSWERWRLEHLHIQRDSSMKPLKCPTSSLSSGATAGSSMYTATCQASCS
T2 sequence (P47871 whole entry): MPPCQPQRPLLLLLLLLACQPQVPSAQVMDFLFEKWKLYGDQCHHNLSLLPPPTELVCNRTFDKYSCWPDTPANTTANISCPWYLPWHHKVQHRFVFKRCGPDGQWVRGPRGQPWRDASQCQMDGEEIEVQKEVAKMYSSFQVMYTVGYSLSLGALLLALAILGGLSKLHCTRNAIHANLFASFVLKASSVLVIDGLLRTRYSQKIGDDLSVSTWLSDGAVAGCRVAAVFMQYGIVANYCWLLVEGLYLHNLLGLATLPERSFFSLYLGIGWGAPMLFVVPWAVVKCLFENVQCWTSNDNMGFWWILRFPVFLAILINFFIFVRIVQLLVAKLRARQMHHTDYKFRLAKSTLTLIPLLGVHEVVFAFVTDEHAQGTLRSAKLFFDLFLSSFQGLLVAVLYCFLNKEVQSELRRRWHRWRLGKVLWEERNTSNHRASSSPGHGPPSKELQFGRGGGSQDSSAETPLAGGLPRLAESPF
Chain of Glucagon receptor (Mus musculus, UniProt Q61606) (Q61606 whole entry): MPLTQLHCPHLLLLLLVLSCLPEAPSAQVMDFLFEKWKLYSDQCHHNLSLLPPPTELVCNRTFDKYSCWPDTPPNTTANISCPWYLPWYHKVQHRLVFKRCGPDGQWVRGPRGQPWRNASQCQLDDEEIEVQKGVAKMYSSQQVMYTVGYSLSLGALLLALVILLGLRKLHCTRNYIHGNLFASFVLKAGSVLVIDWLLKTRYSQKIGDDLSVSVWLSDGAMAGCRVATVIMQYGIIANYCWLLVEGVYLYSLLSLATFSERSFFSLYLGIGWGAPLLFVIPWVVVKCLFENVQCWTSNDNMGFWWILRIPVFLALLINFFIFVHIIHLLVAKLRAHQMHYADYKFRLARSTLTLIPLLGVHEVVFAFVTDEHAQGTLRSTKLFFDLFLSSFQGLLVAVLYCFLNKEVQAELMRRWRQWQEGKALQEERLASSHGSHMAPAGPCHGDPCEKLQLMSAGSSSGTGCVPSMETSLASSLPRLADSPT

`CC(C)(C)[C@H]1CC[C@]2(CC1)N=C(c1ccccc1F)C(=O)N2Cc1ccc(C(=O)NCCC(=O)O)cc1` gave an inhibition in assay [1] of less than 50%. Also, the IC50 in assay [2] was 730 nM; in assay [3] it was greater than 10000 nM; in assay [4] it was greater than 10000 nM.
On to `CC(C)(C)[C@H]1CC[C@]2(CC1)N=C(c1cc(Cl)cc(Cl)c1)C(=O)N2Cc1ccc(C(=O)NCCC(=O)O)cc1`, for which the inhibition in assay [1] is less than 50%. The IC50 in assay [2] was 290 nM; in assay [3], 520 nM; in assay [4], greater than 10000 nM.
Turning to `COc1ccc2cc(-c3cc(-c4cc(Cl)cc(Cl)c4)nn3[C@@H](C)c3ccc(C(=O)NCCC(=O)O)cc3)ccc2c1` [MK-0893], the results for the “inhibition (INH)” value in assay [5] and in assay [6] were 100% and 59%, respectively.
`C[C@H](c1ccc(C(=O)NCc2nnn[nH]2)cc1)N1C(=O)C(c2cc(Cl)cc(Cl)c2)=N[C@]12CC[C@@H](C(C)(C)C)CC2`: the inhibition in assay [1] worked out at 9%. The IC50 was greater than 10000 nM in assay [7], 180 nM in assay [2], 130 nM in assay [3] and 400 nM in assay [4].
Consider `CC(C)(C)[C@H]1CC[C@]2(CC1)N=C(c1ccccc1Cl)C(=O)N2Cc1ccc(C(=O)NCCC(=O)O)cc1`, for which the inhibition in assay [1] was less than 50%. The IC50 in assay [2] turned out to be 6800 nM.
In the case of `CC(C)(C)[C@H]1CC[C@]2(CC1)N=C(c1cccc(C(F)(F)F)c1)C(=O)N2Cc1ccc(C(=O)NCCC(=O)O)cc1`, the inhibition in assay [1] was less than 50%. Moreover, the IC50 in assay [2] came to 510 nM; in assay [4] it was 10000 nM.
In the case of `CC(C)(C)[C@H]1CC[C@]2(CC1)N=C(c1ccc(Cl)c(Cl)c1)C(=O)N2Cc1ccc(C(=O)NCCC(=O)O)cc1`, the inhibition in assay [1] was less than 50%. In addition, in assay [2], the IC50 came out at 1600 nM.
Taken in the same sequence, the figures for `CC(C)(C)[C@H]1CC[C@]2(CC1)N=C(c1ccc(F)cc1)C(=O)N2Cc1ccc(C(=O)NCCC(=O)O)cc1` were less than 50% and 1900 nM.
As to `CCCc1c(C(C)C)cc(C(C)C)c(C(C)O)c1-c1ccc(F)cc1` (single isomer, unassigned; (+)), the “inhibition (INH)” value in assay [5] is 100%; in assay [6], 59%.
In assay [1], `CC(C)(C)[C@H]1CC[C@]2(CC1)N=C(c1ccc(C(F)(F)F)cc1)C(=O)N2Cc1ccc(C(=O)NCCC(=O)O)cc1` came in with an inhibition of less than 50%. Further, the 50% inhibitory concentration (IC50) in assay [2] was 800 nM; in assay [4], 9600 nM.
Take `CC(C)(C)[C@H]1CC[C@]2(CC1)N=C(c1ccc(Cl)cc1)C(=O)N2Cc1ccc(C(=O)NCCC(=O)O)cc1`: in assay [1], the inhibition was less than 50%. Moreover, the concentration for half-maximal inhibition (IC50) is 1400 nM in assay [2], 940 nM in assay [3] and greater than 10000 nM in assay [4].
Taken in the same sequence, the figures for `CC(C)(C)[C@H]1CC[C@]2(CC1)N=C(c1cccc(Cl)c1)C(=O)N2Cc1ccc(C(=O)NCCC(=O)O)cc1` were less than 50%, 770 nM, 770 nM and greater than 10000 nM.
Consider `CC(C)(C)[C@H]1CC[C@]2(CC1)N=C(c1ccc(OC(F)(F)F)cc1)C(=O)N2Cc1ccc(C(=O)NCCC(=O)O)cc1`, for which the inhibition in assay [1] is less than 50%. Moreover, the half-inhibitory concentration (IC50) in assay [2] amounted to 1900 nM.
In the same order, the values of `CC(C)(C)[C@H]1CC[C@]2(CC1)N=C(c1ccccc1)C(=O)N2Cc1ccc(C(=O)NCCC(=O)O)cc1` are less than 50% and 3200 nM.

For the origin of these results see ChEMBL document CHEMBL3232855, “The discovery of N-((2H-tetrazol-5-yl)methyl)-4-((R)-1-((5r,8R)-8-(tert-butyl)-3-(3,5-dichlorophenyl)-2-oxo-1,4-diazaspiro[4.5]dec-3-en-1-yl)-4,4-dimethylpentyl)benzamide (SCH 900822): a potent and selective glucagon receptor antagonist” (J Med Chem, 2014).
